Columns and labels:
[1] = Inhibition of NADH-oxidase activity of electron transport protein complex 1 in submitochondrial particles of bovine heart; parameters: species or system Bos taurus
[2] = Inhibition of NADH-ubiquinone oxidoreductase activity of electron transport protein complex 1 in submitochondrial particles of bovine heart; parameters: species or system Bos taurus

SMILES	IC50 [1] [pM]	IC50 [2] [pM]
CCCCCCCCCC[C@H](O)[C@H]1CC[C@H]([C@H]2CC[C@H]([C@H](O)CCCCC(=O)CCCCCCCC3=C[C@H](C)OC3=O)O2)O1 [GUANACONE]	1520	2070
CCCCC[C@H](O)CCCC[C@H](O)[C@H]1CC[C@H]([C@H]2CC[C@H]([C@H](O)CCCCCCCCCCCCC3=C[C@H](C)OC3=O)O2)O1 [MOTRILIN]	410	810
CCCCCCCCCC[C@H](O)[C@@H]1CC[C@H]([C@H]2CC[C@@H]([C@H](O)CCCCCCCC[C@@H](O)CC3=C[C@H](C)OC3=O)O2)O1 [ROLLIMEMBRIN]	330	830
CCCCCCCCCC[C@H](O)[C@H]1CC[C@H]([C@H]2CC[C@H]([C@H](O)CCCCC(O)CCCCCCCC3=C[C@H](C)OC3=O)O2)O1 (some centres undefined)	950	1900
CCCCCCCCCC[C@H](O)[C@H]1CC[C@H]([C@H]2CC[C@H]([C@H](O)CCCCCCCCCCC(O)CC3=C[C@H](C)OC3=O)O2)O1 (some centres undefined) [rolliniastatin-2]	510	610
CCCCCCCCCC[C@H](O)[C@H]1CC[C@H]([C@H]2CC[C@H]([C@H](O)CCCCCCCCCCCCC3=C[C@H](C)OC3=O)O2)O1 [BULLANIN]	320	440
CCCCCCCCCC[C@H](O)[C@H]1CC[C@H]([C@H]2CC[C@H]([C@H](O)CCCC/C(CCCCCCCC3=C[C@H](C)OC3=O)=N\O)O2)O1	340	680

Reference: ChEMBL document CHEMBL1150931, “10-Oximeguanacone, the first nitrogenated acetogenin derivative found to be a potent inhibitor of mitochondrial complex I” (J Nat Prod, 1998)
